Reference: publication PMC6941404, “Pigmentosins from Gibellula sp. as antibiofilm agents and a new glycosylated asperfuran from Cordyceps javanica” (Beilstein Journal of Organic Chemistry, 2019)
Like-named read-outs stand apart in the source and are kept apart here.

Key:
[1] = tested on: Pseudomonas aeruginosa PA14; test: Anti-biofilm activity, microtiter dish biofilm formation assay; assay type: cell-based; conditions: lowest concentration preventing biofilm formation by at least 50%, 24 h, NA = No activity
Protocol: (§1) The isolated compounds were also tested for their ability to interfere in the biofilm formation of Staphylococcus aureus DSM1104 and Pseudomonas aeruginosa PA14 [51]. The biofilm inhibition assay was performed in 96-well microtiter plates using the microtiter dish biofilm formation assay described by O’Toole, with minor modifications, as outlined in our recent publications. The antibiofilm activity is expressed as MIC values, which is defined as the lowest concentration of substance that prevents biofilm formation of a target microorganism by at least 50%. […]
(§2) Anti-biofilm activity assay
(§3) The determination of the ability of isolated compounds to prevent biofilm formation of S. aureus DSM1104 (ATCC25923) and P. aeruginosa PA148 was performed using the microtiter dish biofilm formation assay described by O’Toole9 with minor modification provided in our recent publications 1, 6, 10–14. The biofilm forming strains were enriched overnight in CASO medium with and without 4% glucose for S. aureus and P. aeruginosa , respectively. After incubation at 37 °C under shaking condition, the overnight cultures were adjusted to equal the turbidity of 0.5 McFarland standard using the assay medium. The assay was carried out in 96 -well tissue cultured -treated microplates (TPP®, Germany) for S. aureus and non-treated plates (Falcon®MicroTestTM, USA) for P. aeruginosa , in which 10 μ L of each compound (0.5 mg/m L) in six replicates were mixed together with 140 μ L of bacterial suspension. Methanol and CASO medium with and without 4% glucose were used as negative controls and tetracycline (100 μg/m L) as positive control. Plates were covered with a sterile adhesive porous paper (Kisker Biotech GmbH, Steinfurt, Germany) and incubated at 37 °C for 24 h.
(§4) After incubation, ba cterial biofilms were stained with 0.1% crystal violet solution (Sigma -Aldrich) following the protocol of O’Toole .9 Then, the biofilm was subsequently quantified using a microplate reader at 550 nm. 12 In the current study, the antibiofilm activity was expr essed as MIC value which was defined as the lowest concentration of substance that prevents the biofilm formation of a target microorganism by at least 50%. […]

[2] = tested on: Staphylococcus aureus DSM1104; test: as above; assay type: cell-based; conditions: S. aureus DSM1104 (ATCC25923), lowest concentration preventing biofilm formation by at least 50%, 24 h, NA = No activity
Protocol: as §1, §2, §3, §4

S. aureus DSM1104 = test: Bacteriostatic and bactericidal activity assay (Bioscreen growth curves, MBC on agar); assay type: cell-based, Staphylococcus aureus; conditions: for MIC90: read-out: Bacteriostatic activity MIC90; for Growth of S. aureus cells relative to growth control: at the lowest concentration where the biofilm formation was interrupted
Protocol: The assay was performed with each concentration tested in quadruplicates. The MIC was considered as the lowest concentration where the percentage of inhibition was higher than or equal to 90%. The minimum bactericidal concentration (MBC) of isolated compounds was also determined by transferring an aliquot of 2 µL from all concentrations tested onto nutrient agar (NA) plates, which were then incubated at 30 °C for 24 h. The MBC endpoint was defined as the lowest concentration of the compounds that killed microorganisms, where no visible growth of the microorganism tested was observed on the agar plates. The experimental procedures and the results are given in detail in Supporting Information File 1. […]
Bacteriostatic and bactericidal activity assay […]
aeruginosa PA14 were further evaluated for their bacteriostatic and bactericidal activit ies. The assay was performed in the Bioscreen 100 -well Honeycomb plate according to the protocol described by Yuyama et al. 13 where the MIC values were determined. The bacterial inoculum was prepared by growing S. aureus DSM1104 in Luria -Bertani broth (LB) for 24 h at 30 °C and then adjusting to 0.5 McFarland turbidity standard. The 0.5 McFarland bacterial suspension (296.25 µL) was transferred to the well containing 3.75 µL of each compound (20 mg/mL) and was subsequently two -fold diluted to give 8 concentrations ranging from 250 –1.95 µg/mL. Since compound 2 and the remaining five compounds could completely be dissolved in MeOH and dimethyl sulfoxide (DMSO), respectively, MeOH and DMSO were used as the solvent controls. The assay was performed with each concentration tested in quadruplicate. The bacterial growth was monitored on the Bioscreen -C automated growth curve analysis system (Oy Growth Curves AB Ltd, Helsinki, Finland) for 24 h with the optical density at 600 nm measured at 15 -min intervals. The MIC of each compound tested was read at 24 h of incubation and was considered as the lowest concentration where the percentage of inhibition was higher than or equal to 90%. Herein, the minimum bactericidal concentration (MBC) of isolated compounds was also determined by transferring an aliquot of 2 µL from all concentration tested onto Nutrient Agar (NA) plates which were then incubate d at 30 °C for 24 h. The MBC endpoint was defined as the lowest concentration of the compounds that kill microorganisms where no visible growth of the microorganism tested was observed on the agar plates.

[3] = S. aureus, minimum bactericidal concentration, no visible growth on NA plates, 30 °C, 24 h
[4] = Staphylococcus aureus, DSM1104, 24 h

SMILES | Anti-biofilm activity (MIC) PA [1] | Anti-biofilm activity (MIC) SA [2] [µg/mL] | Anti-biofilm activity (MIC) SA ([2]; listed as 1) | Cell growth (%) at 1.9 µg/ml (S. aureus DSM1104; S. aureus, 24 h) [%] | Cell growth (%) at 3.9 µg/ml (S. aureus DSM1104; S. aureus, 24 h) [%] | Cell growth (%) at 7.8 µg/ml (S. aureus DSM1104; S. aureus, 24 h) [%] | Cell growth (%) at 15.6 µg/ml (S. aureus DSM1104; S. aureus, 24 h) [%] | Cell growth (%) at 31.3 µg/ml (S. aureus DSM1104; S. aureus, 24 h) [%] | Cell growth (%) at 62.5 µg/ml (S. aureus DSM1104; S. aureus, 24 h) [%] | Cell growth (%) at 125 µg/ml (S. aureus DSM1104; S. aureus, 24 h) [%] | Cell growth (%) at 250 µg/ml (S. aureus DSM1104; S. aureus, 24 h) [%] | MBC (S. aureus DSM1104; [3]) | MBC (S. aureus DSM1104; [4]) [µg/mL] | MIC90 (S. aureus DSM1104; [4]) [µg/mL] | Growth of S. aureus cells relative to growth control (S. aureus DSM1104) | Anti-biofilm activity (MIC) SA ([2]; listed as 2) | Anti-biofilm activity (MIC) SA ([2]; listed as pigmentosin B (2)) [µg/mL] | MIC90 (S. aureus DSM1104; Staphylococcus aureus, DSM1104, S. aureus, lowest concentration with inhibition >= 90% at 24 h) [µg/mL] | MBC (S. aureus DSM1104; Staphylococcus aureus, DSM1104, S. aureus, minimum bactericidal concentration, no visible growth on NA plates, 30 °C, 24 h, read-out: MBC) [µg/mL]
COc1cc(O)c2c(O)c3c(cc2c1-c1c(OC)cc(O)c2c(O)c4c(cc12)CC(C)OC4=O)CC(C)OC3=O (stereo not shown) [Pigmentosin A (1), pigmentosin A] | nor antibiofilm activity | 1.9 | active | 89.5 | 53.2 | 32.8 | 30.3 | 25.4 | 22.6 | 23.8 | 32.5 | higher than 250 µg/ml | > 250 | > 250 | more than 80% |  |  |  | 
COc1cc(O)c2c(O)c3c(cc2c1-c1c(OC)cc(O)c2c(O)c4c(cc12)CC(CC(C)O)OC4=O)CC(C)OC3=O (stereo not shown) [Pigmentosin B (2), pigmentosin B] | nor antibiofilm activity | 15.6 |  | 100 | 94.4 | 84.9 | 54.3 | 40.9 | 42.8 | 29.9 | 26.8 | higher than 250 µg/ml |  |  | more than 80% | active | 15.6 | > 250 | > 250
